The target of assay [1] is T1, HLA class I molecule B*0702 (Homo sapiens, UniProt P01889).
T1 construct: purchased ProImmune Ltd., Oxford, UK
The assay is described as follows: REVEAL HLA-peptide binding assay, B*0702. The settings on record: assembly of peptide-HLA complex by ELISA with conformation-dependent anti-HLA antibody, relative to positive control peptide for that allele, comparable within an allele only. Set-up: concentration or dose not given beside the values. As to the method: (§1) The REVEAL HLA-peptide binding assay (ProImmune Ltd., Oxford, UK) was used to quantify peptide-HLA binding. For each allele-peptide combination that was tested, assembly of peptide-HLA complexes was quantified by ELISA with a conformation-dependent anti-HLA antibody. Samples of assembling peptide-HLA complexes were taken at a defined time point and snap-frozen in liquid nitrogen prior to analysis. The assembly for each peptide-HLA complex was then compared against a positive control peptide for that allele as the percentage of assembled peptide relative to that control. We selected four HLA class I alleles and 50 HTLV-1 peptides for each allele. The allele choice was based on allele frequency in the Kagoshima database and included 2 A alleles and 2 B alleles as well as alleles for which we knew that the epitope prediction tended to be poor. The 50 HTLV-1 nonamer peptides for each allele were selected to represent a range of predicted binding affinities, from weak to strong binding peptides. They originated from 4 HTLV-1 reference strain proteins: Tax, HBZ, Gag and Polymerase.
(§2) Note the binding score is with respect to a reference good binding peptide for each allele and therefore scores can be compared within an allele but not between alleles.
In general terms: In an ELISA, binding on a coated surface is turned into a signal by an enzyme label.

For assay [2], the target named is HLA class I molecule B*3501 (Homo sapiens, UniProt P01889, A329T/A93T/A95T/C349S/D201E/D98Y/E176V/E187L/E204Q/E69T/I218V/K202T/L119I/Q94N/R155S/R180L/S121R/S35A/S48A/T118I/V127L/V306I/V36M/Y140S/Y91F). The assay is described as follows: REVEAL HLA-peptide binding assay, B*3501. Conditions: assembly of peptide-HLA complex by ELISA with conformation-dependent anti-HLA antibody, relative to positive control peptide for that allele, comparable within an allele only. As to the method:
as §1, §2

Assay [3] addresses T2, HLA class I molecule A*2402 (Homo sapiens, UniProt P04439, D101N/D140Y/D185E/E176V/E190D/F33S/G103R/G107R/I119L/I121M/I306V/K335N/L105A/L180Q/L300P/N151K/N90K/Q86E/Q94H/R106L/R138H/R89G/T104I/T345S/V100E/W191G/Y123F).
T2 construct: purchased ProImmune Ltd., Oxford, UK
The format is binding. The settings on record: REVEAL assay, assembly of peptide-HLA complex by ELISA with conformation-dependent anti-HLA antibody, relative to positive control peptide for that allele, comparable within an allele only.

The target in assay [4] is T3, HLA class I molecule A*0201 (Homo sapiens, UniProt P04439, D140Y/D185E/D98H/E176V/E277Q/G131W/G231S/I119V/I121R/I166T/I218V/L300P/L318F/N151K/N90K/P208A/P217A/Q86G/Q94H/R138H/R169H/T345S).
T3 construct: purchased ProImmune Ltd., Oxford, UK
The assay is classed as binding. The settings on record: REVEAL assay, assembly of peptide-HLA complex by ELISA with conformation-dependent anti-HLA antibody, relative to positive control peptide for that allele, comparable within an allele only.

Regarding AASGLFRCL [HTLV-1 nonamer peptide], the results for the “Score (experimentally measured binding affinity, % binding compared to control peptide)” value in assay [1] and in assay [2] were 107.28% and 7.33%, respectively. In the case of APLPHTSQC [HTLV-1 nonamer peptide], in assay [1], the “Score (experimentally measured binding affinity, % binding compared to control peptide)” value amounted to 135.12%. On to DPISRLNAL [HTLV-1 nonamer peptide], for which the “Score (experimentally measured binding affinity, % binding compared to control peptide)” value in assay [1] is 115.84%; in assay [2] it was 67.38%. For the sequence FPGFGQSLL [HTLV-1 nonamer peptide], the “Score (experimentally measured binding affinity, % binding compared to control peptide)” value in assay [1] is 102.99%; in assay [2], 55.31%. The corresponding values for HPGQLGAFL [HTLV-1 nonamer peptide] are 60.82% and 34.24%. As to HQLKKFLKI [HTLV-1 nonamer peptide], the “Score (experimentally measured binding affinity, % binding compared to control peptide)” value stood at 46.49% in assay [3] and 0% in assay [4]. The like results for IALETPARI [HTLV-1 nonamer peptide] were, in that order, 9.68% and 17.01%. Turning to KARRRRRAE [HTLV-1 nonamer peptide], the “Score (experimentally measured binding affinity, % binding compared to control peptide)” value in assay [1] was determined as 0%.

Consider KISLTTGAL [HTLV-1 nonamer peptide], for which the “Score (experimentally measured binding affinity, % binding compared to control peptide)” value in assay [1] came out at 71.26%; in assay [4], 3.54%.

Turning to LEAERRKLL [HTLV-1 nonamer peptide], the “Score (experimentally measured binding affinity, % binding compared to control peptide)” value in assay [1] turned out to be 1.08%.

Regarding LPFHSTLTT [HTLV-1 nonamer peptide], the “Score (experimentally measured binding affinity, % binding compared to control peptide)” value in assay [1] is on record as 97.77%; in assay [2], 102.24%.

Turning to LPGLNSRQW [HTLV-1 nonamer peptide], the “Score (experimentally measured binding affinity, % binding compared to control peptide)” value in assay [1] is reported as 6.78%. Still for that read-out and setting: with LPVMHPHGA [HTLV-1 nonamer peptide] the figure was 9.38%. Turning to LPVSCPEDL [HTLV-1 nonamer peptide], the entries for the “Score (experimentally measured binding affinity, % binding compared to control peptide)” value in assay [1] and in assay [2] were 6.44% and 74.86%, respectively. On to LSPPITWPL [HTLV-1 nonamer peptide], for which the figures for the “Score (experimentally measured binding affinity, % binding compared to control peptide)” value in assay [3], in assay [4] and in assay [2] were 4.52%, 34.53% and 41.83%, respectively. For LVLQSSSFI [HTLV-1 nonamer peptide], the “Score (experimentally measured binding affinity, % binding compared to control peptide)” value in assay [1] amounted to 1.65%; in assay [4] it was 41.33%. Consider LWLAAFAAL [HTLV-1 nonamer peptide], for which the “Score (experimentally measured binding affinity, % binding compared to control peptide)” value in assay [3] is on record as 30.63%. As for “MPVFTLSPV [HTLV-1 nonamer peptide from Pol]”, the “Score (experimentally measured binding affinity, % binding compared to control peptide)” value was 142.96% in assay [1] and 114.77% in assay [2].

Consider NFLQAAYRL [HTLV-1 nonamer peptide], for which the “Score (experimentally measured binding affinity, % binding compared to control peptide)” value in assay [3] came out at 113.8%; in assay [2] it was 3.16%. For NYSLLASLL [HTLV-1 nonamer peptide], the “Score (experimentally measured binding affinity, % binding compared to control peptide)” value in assay [3] is given as 105.08%. With PPNHRPWQM [HTLV-1 nonamer peptide], in assay [1], the “Score (experimentally measured binding affinity, % binding compared to control peptide)” value is given as 103.11%. As to PYHAFVERL [HTLV-1 nonamer peptide], the “Score (experimentally measured binding affinity, % binding compared to control peptide)” value in assay [3] was 113.04%.

Regarding PYKRIEELL [HTLV-1 nonamer peptide], in assay [3], the “Score (experimentally measured binding affinity, % binding compared to control peptide)” value was determined as 99.06%. Still for that read-out and setting: with PYNPTSSGL [HTLV-1 nonamer peptide] the figure was 104.86%. As to QPARAPVTL [HTLV-1 nonamer peptide], the “Score (experimentally measured binding affinity, % binding compared to control peptide)” value is recorded as 135.43% in assay [1] and 55.56% in assay [2]. On to QPRPPPGPC [HTLV-1 nonamer peptide], for which the “Score (experimentally measured binding affinity, % binding compared to control peptide)” value in assay [1] was 138.82%. For QYLCSSLVA [HTLV-1 nonamer peptide], the “Score (experimentally measured binding affinity, % binding compared to control peptide)” value in assay [3] is recorded as 4.85%. Consider RAEKKAADV [HTLV-1 nonamer peptide], for which the “Score (experimentally measured binding affinity, % binding compared to control peptide)” value in assay [1] came to 2.78%.

In the case of RDRQRRAEE [HTLV-1 nonamer peptide], the “Score (experimentally measured binding affinity, % binding compared to control peptide)” value in assay [1] came to 1.54%. On to RGRLRRGPP [HTLV-1 nonamer peptide], for which the “Score (experimentally measured binding affinity, % binding compared to control peptide)” value in assay [1] is listed as 1.21%.

RPAPPPPSS [HTLV-1 nonamer peptide]: the “Score (experimentally measured binding affinity, % binding compared to control peptide)” value in assay [1] came out at 93.08%. For RPPRGLAAH [HTLV-1 nonamer peptide], the “Score (experimentally measured binding affinity, % binding compared to control peptide)” value was determined as 143.59% in assay [1] and 34.86% in assay [2]. With RRRAEKKAA [HTLV-1 nonamer peptide], in assay [1], the “Score (experimentally measured binding affinity, % binding compared to control peptide)” value is on record as 0%. SARLHRHAL [HTLV-1 nonamer peptide]: the “Score (experimentally measured binding affinity, % binding compared to control peptide)” value in assay [1] is reported as 236.66%. SFLLSHGLI [HTLV-1 nonamer peptide]: in assay [3], the “Score (experimentally measured binding affinity, % binding compared to control peptide)” value stood at 79.27%.

For the sequence STLTTPGLI [HTLV-1 nonamer peptide], the “Score (experimentally measured binding affinity, % binding compared to control peptide)” value in assay [3] came to 0%; in assay [4], 0.84%. Take SWASILQGL [HTLV-1 nonamer peptide]: the “Score (experimentally measured binding affinity, % binding compared to control peptide)” value in assay [3] is 123.67%.

SYGLLCQTI [HTLV-1 nonamer peptide]: in assay [3], the “Score (experimentally measured binding affinity, % binding compared to control peptide)” value came to 114.37%. “TPKDKTKVL [HTLV-1 nonamer peptide from Gag]”: the “Score (experimentally measured binding affinity, % binding compared to control peptide)” value in assay [1] is 113.7%. Consider TPNIPPSFL [HTLV-1 nonamer peptide], for which the “Score (experimentally measured binding affinity, % binding compared to control peptide)” value in assay [1] is recorded as 138.52%. For TTPGLIWTF [HTLV-1 nonamer peptide], the “Score (experimentally measured binding affinity, % binding compared to control peptide)” value in assay [3] is reported as 215.15%. Consider TTPNIPPSF [HTLV-1 nonamer peptide], for which the “Score (experimentally measured binding affinity, % binding compared to control peptide)” value in assay [3] was found to be 0.43%. For the sequence TWPLLPHVI [HTLV-1 nonamer peptide], the “Score (experimentally measured binding affinity, % binding compared to control peptide)” value in assay [3] was 118.19%. On to VFTLSPVII [HTLV-1 nonamer peptide], for which, in assay [3], the “Score (experimentally measured binding affinity, % binding compared to control peptide)” value is given as 97.21%. On to VLQSSSFIF [HTLV-1 nonamer peptide], for which the “Score (experimentally measured binding affinity, % binding compared to control peptide)” value in assay [3] was 82.42%. VPIRSRWAL [HTLV-1 nonamer peptide]: the “Score (experimentally measured binding affinity, % binding compared to control peptide)” value in assay [1] stood at 125.64%. On to VPYKRIEEL [HTLV-1 nonamer peptide], for which, in assay [1], the “Score (experimentally measured binding affinity, % binding compared to control peptide)” value is listed as 133.31%. As to VSCPEDLLV [HTLV-1 nonamer peptide], the “Score (experimentally measured binding affinity, % binding compared to control peptide)” value in assay [3] is on record as 9.6%. As to WQGRLEAMW [HTLV-1 nonamer peptide], the “Score (experimentally measured binding affinity, % binding compared to control peptide)” value in assay [3] is recorded as 2.54%. Turning to WQMKDLQAI [HTLV-1 nonamer peptide], the “Score (experimentally measured binding affinity, % binding compared to control peptide)” value in assay [3] was determined as 0%; in assay [4] it was 44.68%. YPGRVNEIL [HTLV-1 nonamer peptide]: the “Score (experimentally measured binding affinity, % binding compared to control peptide)” value amounted to 158.86% in assay [1] and 109.69% in assay [2].

Regarding YWQGRLEAM [HTLV-1 nonamer peptide], the “Score (experimentally measured binding affinity, % binding compared to control peptide)” value in assay [3] was 40.32%; in assay [2], 7.1%.
